Two compounds from patent US20220202882A1, “EFFECT OF COMBINATION OF BIFIDOBACTERIUM AND BERBERINE ON PRE-DIABETES AND TYPE 2 DIABETES” (The Fourth Military Medical University, priority 2018, published 2022) can be followed below.

The subject of test [1] is pre-diabetic and type 2 diabetes mellitus patients. Description: Clinical trial: venous plasma glucose at 2 hours post OGTT (2-h PPG). Format: in vivo, human. As to conditions: for Effect on 2 h-PPG (in words) / Post-treatment 2-h PPG - pre-treatment 2-h PPG, mean value / Post-treatment 2-h PPG <10.0 mmol/L, Yes-N (%): 16 weeks of treatment; for Effect on 2 h-PPG (in words): Kruskal-Wilcox test; for Post-treatment 2-h PPG, mean value: after 16 weeks of treatment; for Pre-treatment 2-h PPG, mean value: baseline before treatment. How it is done: From June 2015 to October 2018, a double-blind, randomized, and parallel-controlled trial, studying the effects of the combined use of Bifidobacterium and berberine on pre-diabetic and type 2 diabetes mellitus patients, was conducted in 10 research centers in Xi'an, Yan'an and Shangluo of Shaanxi province, etc., including the First Affiliated Hospital of the Fourth Military Medical University. The trial included an enrollment stage of 2 weeks and a treatment stage of 16 weeks. After passing the first visit 1 (see V1 in Table 1), the subjects entered the enrollment stage, i.e., 2 weeks of lifestyle intervention, followed by a re-screening (see V2 in Table 1). The subjects were subjected to a 16-week course of treatment after passing the screening. See Table 1 for the detailed screening parameters. After the enrollment stage, the baseline data of the 300 successfully enrolled subjects were collected. Meanwhile, the subjects started to receive lifestyle guidance, and were randomly divided into four groups for 16 weeks of treatments. 1) Bifidobacterium group: the subjects were administered with Bifidobacterium capsules (Livzon Pharmaceutical Group Inc., batch no.: 20141013), 0.35 g/capsule, each capsule containing 50,000,000 viable bacteria (Bifidobacterium adolescentis DM8504), 2 capsules/time, 2 times/day, plus berberine placebo tablets (Northeast Pharma Group Shenyang First Pharma Co., Ltd., Lot no.: 20150101, containing 80.2% microcrystalline cellulose, 9.4% pregelatinized starch, 6.4% sodium carboxymethyl starch, 1% magnesium stearate, and 3% copovidone), 0.1 g/tablet, 5 tablets/time, 2 times/day. 2) Berberine group: the subjects were administered with berberine tablets (Northeast Pharma Group Shenyang First Pharma Co., Ltd., Lot no.: 130917, each tablet weighted 0.165 g and contained 0.1 g active berberine ingredient (berberine hydrochloride), with the same excipients as the placebo tablets), 5 tablets/time, 2 times/day, plus Bifidobacterium placebo capsules (Livzon Pharmaceutical Group Inc., Lot no.: 141001, specifically containing 0.348 g spray-dried lactose, and 0.002 g magnesium stearate), 0.35 g/capsule, 2 capsules/time, 2 times/day. 3) Combination Group: the subjects were administered with Bifidobacterium capsules, 0.35 g/capsule, each capsule containing 50,000,000 viable bacteria (B. adolescentis DM8504), 2 capsules/time, 2 times/day, plus berberine tablets, 0.1 g/tablet, each tablet containing 0.1 g active berberine ingredient (berberine hydrochloride), 5 tablets/time, 2 times/day. 4) Control group: the subjects were administered with Bifidobacteria placebo capsules, 0.35 g/capsule, 2 capsules/time, 2 times/day, plus berberine placebo tablets, 0.1 g/tablet, 5 tablets/time, 2 times/day. Bifidobacterium capsules were taken after meals and berberine tablets were taken before meals. Before the oral glucose tolerance test (OGTT), the subjects took regular diets for at least 3 days, with carbohydrates no less than 150 g. After 10-12 h fasting, initial blood samples were collected after the subjects emptied their bladders. Then the subjects drank a sugar solution made by dissolving 75 g anhydrous glucoses in 300 ml water over about 5 min, and were collected for blood samples after 30 min and 2 h. […]

For test [2] the test system is unchanged. Description: Clinical trial: glycosylated hemoglobin (HbA1c). In kind it is in vivo, human. The note with it: for Effect on glycosylated hemoglobin level (in words) / Post-treatment HbA1c - pre-treatment HbA1c, mean value / Post-treatment HbA1c <7.0% with no hypoglycemia, Yes-N (%) / Post-treatment HbA1c <7.0%, Yes-N (%): 16 weeks of treatment; for Effect on glycosylated hemoglobin level (in words): Kruskal-Wilcox test; for Post-treatment HbA1c, mean value: after 16 weeks of treatment; for Pre-treatment HbA1c, mean value: baseline before treatment. How it is done:
From June 2015 to October 2018, a double-blind, randomized, and parallel-controlled trial, studying the effects of the combined use of Bifidobacterium and berberine on pre-diabetic and type 2 diabetes mellitus patients, was conducted in 10 research centers in Xi'an, Yan'an and Shangluo of Shaanxi province, etc., including the First Affiliated Hospital of the Fourth Military Medical University. The trial included an enrollment stage of 2 weeks and a treatment stage of 16 weeks. After passing the first visit 1 (see V1 in Table 1), the subjects entered the enrollment stage, i.e., 2 weeks of lifestyle intervention, followed by a re-screening (see V2 in Table 1). The subjects were subjected to a 16-week course of treatment after passing the screening. See Table 1 for the detailed screening parameters. After the enrollment stage, the baseline data of the 300 successfully enrolled subjects were collected. Meanwhile, the subjects started to receive lifestyle guidance, and were randomly divided into four groups for 16 weeks of treatments. 1) Bifidobacterium group: the subjects were administered with Bifidobacterium capsules (Livzon Pharmaceutical Group Inc., batch no.: 20141013), 0.35 g/capsule, each capsule containing 50,000,000 viable bacteria (Bifidobacterium adolescentis DM8504), 2 capsules/time, 2 times/day, plus berberine placebo tablets (Northeast Pharma Group Shenyang First Pharma Co., Ltd., Lot no.: 20150101, containing 80.2% microcrystalline cellulose, 9.4% pregelatinized starch, 6.4% sodium carboxymethyl starch, 1% magnesium stearate, and 3% copovidone), 0.1 g/tablet, 5 tablets/time, 2 times/day. 2) Berberine group: the subjects were administered with berberine tablets (Northeast Pharma Group Shenyang First Pharma Co., Ltd., Lot no.: 130917, each tablet weighted 0.165 g and contained 0.1 g active berberine ingredient (berberine hydrochloride), with the same excipients as the placebo tablets), 5 tablets/time, 2 times/day, plus Bifidobacterium placebo capsules (Livzon Pharmaceutical Group Inc., Lot no.: 141001, specifically containing 0.348 g spray-dried lactose, and 0.002 g magnesium stearate), 0.35 g/capsule, 2 capsules/time, 2 times/day. 3) Combination Group: the subjects were administered with Bifidobacterium capsules, 0.35 g/capsule, each capsule containing 50,000,000 viable bacteria (B. adolescentis DM8504), 2 capsules/time, 2 times/day, plus berberine tablets, 0.1 g/tablet, each tablet containing 0.1 g active berberine ingredient (berberine hydrochloride), 5 tablets/time, 2 times/day. 4) Control group: the subjects were administered with Bifidobacteria placebo capsules, 0.35 g/capsule, 2 capsules/time, 2 times/day, plus berberine placebo tablets, 0.1 g/tablet, 5 tablets/time, 2 times/day. Bifidobacterium capsules were taken after meals and berberine tablets were taken before meals. Before blood collection, the subjects were kept still for 5 min. For serum insulin assays, 5 ml of whole blood was collected at fasting, and 30 min and 2 h post glucose intake, and then subjected to centrifugation […]. The obtained serum was collected in the cryogenic vials. For the glycosylated hemoglobin (HbA1c) test, 2 ml of whole blood was collected and placed in EDTA-containing tubes. For the GLP-1 and glucagon measurements, 5 ml of whole blood was collected in vacutainers containing EDTA and aprotinin at fasting, and 30 min and 2 h post meals, subjected to centrifugation, and the obtained serum was collected in cryogenic vials and stored at −20° C. Soybean-sized stool sample was placed in a dry and sterile collection tube, and sent to the detection center within 24 h for cryopreservation. […]

Structures can show the parent of a compound that is named as a salt.

With `COc1ccc2cc3[n+](cc2c1OC)CCc1cc2c(cc1-3)OCO2` [Berberine, berberine hydrochloride], the “Effect on 2 h-PPG (in words)” value in test [1] is recorded as “good effect too”. Moreover, in test [1] (FAS), the “Post-treatment 2-h PPG - pre-treatment 2-h PPG, mean value” was -1.1 mmol/L; the “Post-treatment 2-h PPG <10.0 mmol/L, Yes-N (%)” value is recorded as 35(71.43) N (%); the “Post-treatment 2-h PPG, mean value” is given as 9.84 mmol/L; the “Pre-treatment 2-h PPG, mean value” is 11.2 mmol/L. The “Post-treatment 2-h PPG <10.0 mmol/L, Yes-N (%)” value in test [1] (PPS) is on record as 24(64.86) N (%). Besides, the “Effect on glycosylated hemoglobin level (in words)” value in test [2] is “not significantly different from that of the combined use of berberine and Bifidobacterium”. Also, in test [2] (FAS), the “Post-treatment HbA1c - pre-treatment HbA1c, mean value” is −0.1170%; the “Post-treatment HbA1c <7.0% with no hypoglycemia, Yes-N (%)” value is 40(81.63) N (%); the “Post-treatment HbA1c <7.0%, Yes-N (%)” value is reported as 48(97.96) N (%); the “Post-treatment HbA1c, mean value” is 6.0800%. Also, in test [2] (FAS), the “Pre-treatment HbA1c, mean value” stood at 6.1900%. In addition, in test [2] (PPS), the “Post-treatment HbA1c <7.0% with no hypoglycemia, Yes-N (%)” value is reported as 28(75.68) N (%) and the “Post-treatment HbA1c <7.0%, Yes-N (%)” value is 36(97.30) N (%).
Bifidobacterium: in test [1], the “Effect on 2 h-PPG (in words)” value is on record as “no such effect”. For the same compound, in test [1] (FAS), the “Post-treatment 2-h PPG - pre-treatment 2-h PPG, mean value” was -0.246 mmol/L; the “Post-treatment 2-h PPG <10.0 mmol/L, Yes-N (%)” value is given as 45(45.00) N (%); the “Post-treatment 2-h PPG, mean value” is 11.3 mmol/L; the “Pre-treatment 2-h PPG, mean value” is recorded as 11.4 mmol/L. Further, the “Post-treatment 2-h PPG <10.0 mmol/L, Yes-N (%)” value in test [1] (PPS) was 31(37.35) N (%). The “Effect on glycosylated hemoglobin level (in words)” value in test [2] is listed as “no glycosylated hemoglobin lowing effect”. In test [2] (FAS), the “Post-treatment HbA1c - pre-treatment HbA1c, mean value” is given as −0.0545%; the “Post-treatment HbA1c <7.0% with no hypoglycemia, Yes-N (%)” value is 76(76.00) N (%); the “Post-treatment HbA1c <7.0%, Yes-N (%)” value was 88(88.00) N (%); the “Post-treatment HbA1c, mean value” came to 6.1500%. The “Pre-treatment HbA1c, mean value” in test [2] (FAS) came out at 6.1900%. In test [2] (PPS), the “Post-treatment HbA1c <7.0% with no hypoglycemia, Yes-N (%)” value is reported as 61(73.49) N (%) and the “Post-treatment HbA1c <7.0%, Yes-N (%)” value was 71(85.54) N (%).
